The assay has as its system BDF1 mice, P388 leukemia ip, median survival T/C. Nature of the assay: NCI In Vivo Anticancer Drug Screen. Data for tumor model P388 Leukemia (intraperitoneal) in B6D2F1 (BDF1) mice. The settings on record: endpoint: median survival time, higher = longer survival. The method in brief:
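Transplantable tumour in mice; compound vs vehicle dosing; survival scored; ratio of treated to control reported.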

Where [1] appears, read: dose: 25.0 mg/kg/injection, schedule: Q04DX003 (ip), vehicle: saline.
Where [2] appears, read: dose: 100.0 mg/kg/injection, schedule: Q04DX003 (ip), vehicle: saline with Tween-80.
Setting [3] is: dose: 50.0 mg/kg/injection, schedule: Q01DX009 (ip), vehicle: saline with Tween-80.
The mark [4] stands for this setting: dose: 100.0 mg/kg/injection, schedule: Q01DX009 (ip), vehicle: saline with Tween-80.
[5] abbreviates: dose: 200.0 mg/kg/injection, schedule: Q01DX009 (ip), vehicle: saline with Tween-80.
The mark [6] stands for this setting: dose: 100.0 mg/kg/injection, schedule: Q04DX002 (ip), vehicle: saline with Tween-80.
Setting [7] is: dose: 200.0 mg/kg/injection, schedule: Q04DX002 (ip), vehicle: saline with Tween-80.
The mark [8] stands for this setting: dose: 400.0 mg/kg/injection, schedule: Q04DX002 (ip), vehicle: saline with Tween-80.
Setting [9] is: dose: 400.0 mg/kg/injection, schedule: Q01DX009 (ip), vehicle: saline with Tween-80.
The mark [10] stands for this setting: dose: 200.0 mg/kg/injection, schedule: Q04DX003 (ip), vehicle: saline with Tween-80.
[11] abbreviates: dose: 400.0 mg/kg/injection, schedule: Q04DX003 (ip), vehicle: saline with Tween-80.

Several values for one entry are separate records, joined by “and”; a condition that tells them apart may be missing. Equal entries are not always repeated. Inconclusive results and toxic doses are left out.

Regarding `CN1CCN(Cc2nc3cccc4c3c([n+]2[O-])-c2ccccc2-4)CC1`, the T/C was 100 % of control (dose: 40.0 mg/kg/injection, schedule: Q06HX032 (ip), vehicle: saline with Tween-80); 107 % of control (dose: 50.0 mg/kg/injection, schedule: Q03HX008 (ip), vehicle: saline with Tween-80); 109 % of control (dose: 50.0 mg/kg/injection, schedule: Q03HX024 (ip), vehicle: saline with Tween-80); 118 % of control (dose: 80.0 mg/kg/injection, schedule: Q01DX009 (ip), vehicle: saline with Tween-80); 120 % of control (dose: 80.0 mg/kg/injection, schedule: Q03HX008 (ip), vehicle: saline with Tween-80); 158 % of control (dose: 100.0 mg/kg/injection, schedule: Q01DX009 (ip), vehicle: saline). The T/C reads like this: (dose: 100.0 mg/kg/injection, schedule: Q01DX009 (oral), vehicle: saline with Tween-80) 107 % of control; (dose: 100.0 mg/kg/injection, schedule: Q01DX Z (ip), vehicle: saline) 159 % of control; (dose: 100.0 mg/kg/injection, schedule: Q03HX008 (oral), vehicle: saline with Tween-80) 105 % of control; (dose: 100.0 mg/kg/injection, schedule: Q03HX024 (ip), vehicle: saline with Tween-80) 162 % of control; (dose: 100.0 mg/kg/injection, schedule: Q08HX009 (oral), vehicle: saline with Tween-80) 100 % of control; (dose: 100.0 mg/kg/injection, schedule: Q08HX027 (oral), vehicle: saline with Tween-80) 120 % of control. Also, the T/C is 150 % of control (dose: 150.0 mg/kg/injection, schedule: Q01DX009 (ip), vehicle: saline); 112 % of control (dose: 150.0 mg/kg/injection, schedule: Q01DX009 (oral), vehicle: saline with Tween-80); 99 % of control (dose: 150.0 mg/kg/injection, schedule: Q04DX003 (oral), vehicle: saline with Tween-80); 112 % of control (dose: 150.0 mg/kg/injection, schedule: Q08HX009 (oral), vehicle: saline with Tween-80); 161 % of control (dose: 175.0 mg/kg/injection, schedule: Q08HX027 (oral), vehicle: saline with Tween-80); 110 % of control (dose: 200.0 mg/kg/injection, schedule: Q01DX009 (oral), vehicle: saline with Tween-80). Moreover, the T/C was 152 % of control (dose: 200.0 mg/kg/injection, schedule: Q03HX024 (oral), vehicle: saline with Tween-80); 110 % of control (dose: 200.0 mg/kg/injection, schedule: Q04DX003 (oral), vehicle: saline with Tween-80); 103 % of control (dose: 200.0 mg/kg/injection, schedule: Q08HX009 (oral), vehicle: saline with Tween-80); 90 % of control (dose: 200.0 mg/kg/injection, schedule: Q08HX027 (oral), vehicle: saline with Tween-80); 117 % of control (dose: 250.0 mg/kg/injection, schedule: Q01DX009 (oral), vehicle: saline with Tween-80); 100 % of control (dose: 250.0 mg/kg/injection, schedule: Q04DX003 (oral), vehicle: saline with Tween-80). The T/C is 116 % of control (dose: 250.0 mg/kg/injection, schedule: Q08HX009 (oral), vehicle: saline with Tween-80) and 105 % of control (dose: 300.0 mg/kg/injection, schedule: Q04DX003 (oral), vehicle: saline with Tween-80).

Turning to `C1CNCC[N-]1.C1CNCC[N-]1.[Cl][Pt+2]([Cl])([Cl])[Cl]`, the T/C (dose: 3.12 mg/kg/injection, schedule: Q04DX003 (ip), vehicle: saline) was 106 % of control and 115 % of control; the T/C (dose: 6.25 mg/kg/injection, schedule: Q01DX009 (ip), vehicle: saline) is 106 % of control; the T/C (dose: 6.25 mg/kg/injection, schedule: Q04DX003 (ip), vehicle: saline) was 100 % of control and 115 % of control; the T/C (dose: 12.5 mg/kg/injection, schedule: Q01DX009 (ip), vehicle: Klucel (hydroxypropylcellulose) (HPC)) was 108 % of control; the T/C (dose: 12.5 mg/kg/injection, schedule: Q04DX003 (ip), vehicle: saline) is 93 % of control and 98 % of control and 100 % of control; the T/C (dose: 25.0 mg/kg/injection, schedule: Q01DX009 (ip), vehicle: Klucel (hydroxypropylcellulose) (HPC)) is 120 % of control. Besides, the T/C under setting [1] is 108 % of control.

As to `CN(CCS)Cc1ccccc1`, the T/C is 100 % of control (dose: 25.0 mg/kg/injection, schedule: Q04DX003 (ip), vehicle: saline with Tween-80); 104 % of control (dose: 50.0 mg/kg/injection, schedule: Q04DX003 (ip), vehicle: saline with Tween-80); 100 % of control under setting [2].

With `O=C(/C=C/c1ccc(OCc2ccccc2)cc1)c1cccc(F)c1`, the T/C runs as follows: under setting [3], 100 % of control; under setting [4], 100 % of control; under setting [5], 92 % of control.

On to `O=S(=O)(c1ccccc1CO)c1ccccc1CO`, for which the T/C is 98 % of control under setting [6], 95 % of control under setting [7] and 100 % of control under setting [8].

Take `N#CCCN(CCC#N)/N=N\c1nc[nH]c1C(N)=O`: the T/C is 101 % of control under setting [3], 105 % of control under setting [4], 113 % of control under setting [5] and 113 % of control under setting [9].

As for `CC1(C)CC(=O)CC(C)(C)N1O`, the T/C by setting is: (dose: 100.0 mg/kg/injection, schedule: Q04DX003 (ip), vehicle: Klucel (hydroxypropylcellulose) (HPC)) 100 % of control; (dose: 200.0 mg/kg/injection, schedule: Q04DX003 (ip), vehicle: Klucel (hydroxypropylcellulose) (HPC)) 100 % of control; (dose: 400.0 mg/kg/injection, schedule: Q04DX003 (ip), vehicle: Klucel (hydroxypropylcellulose) (HPC)) 104 % of control.

On to `Cc1ccc(C2(C#N)CCCCC2)cc1`, for which the T/C (dose: 66.0 mg/kg/injection, schedule: Q01DX009 (ip), vehicle: saline with Tween-80) is 116 % of control; the T/C under setting [4] is 120 % of control; the T/C under setting [2] is 100 % of control; the T/C (dose: 150.0 mg/kg/injection, schedule: Q01DX009 (ip), vehicle: saline with Tween-80) is 112 % of control; the T/C under setting [5] is 108 % of control; the T/C under setting [10] was 108 % of control. Also, the T/C under setting [9] was 116 % of control and the T/C under setting [11] is 112 % of control.

For the compound `OC(CC(O)(C(F)(F)F)C(F)(F)F)c1ccccc1` (centres undefined), the T/C is 100 % of control under setting [2], 118 % of control under setting [10] and 113 % of control under setting [11].

With `CC(=O)Oc1cc2cnc3c4cc(OC(C)=O)c(OC(C)=O)cc4ccc3c2cc1OC(C)=O`, the T/C by setting is: (dose: 0.62 mg/kg/injection, schedule: Q01DX009 (ip), vehicle: saline) 106 % of control; (dose: 1.25 mg/kg/injection, schedule: Q01DX009 (ip), vehicle: saline) 94 % of control; (dose: 2.5 mg/kg/injection, schedule: Q01DX009 (ip), vehicle: saline) 97 % of control; (dose: 5.0 mg/kg/injection, schedule: Q01DX009 (ip), vehicle: saline) 86 % of control; (dose: 20.0 mg/kg/injection, schedule: Q01DX009 (ip), vehicle: saline) 109 % of control; (dose: 80.0 mg/kg/injection, schedule: Q01DX009 (ip), vehicle: saline) 86 % of control. Moreover, the T/C was 90 % of control (dose: 120.0 mg/kg/injection, schedule: Q01DX009 (ip), vehicle: saline) and 95 % of control (dose: 240.0 mg/kg/injection, schedule: Q01DX009 (ip), vehicle: saline).

Take `O=C(CNC(=O)Nc1n[nH]c(=S)s1)NNC(=S)Nc1ccccc1`: the T/C is 115 % of control under setting [3], 118 % of control under setting [4] and 109 % of control under setting [5].

Take `CC1(C)O[C@]2(C)CC[C@@H]1[C@H](O)[C@@H]2N1CCCC1`: the T/C is, setting by setting: (dose: 50.0 mg/kg/injection, schedule: Q01DX005 (ip), vehicle: saline with Tween-80) 111 % of control; (dose: 100.0 mg/kg/injection, schedule: Q01DX005 (ip), vehicle: saline with Tween-80) 104 % of control.

With `O=C1CSCC(=O)C1`, the T/C reads like this: under setting [6], 94 % of control; under setting [7], 96 % of control; under setting [8], 96 % of control.

Regarding `CCN(CC)CCCOC(=O)/C=C/c1c(C)[nH]c(=O)[nH]c1=O`, the T/C runs as follows: under setting [1], 104 % of control; (dose: 50.0 mg/kg/injection, schedule: Q04DX003 (ip), vehicle: saline) 117 % of control; (dose: 100.0 mg/kg/injection, schedule: Q04DX003 (ip), vehicle: saline) 90 % of control.
